The values below come from patent US8785211B2 (priority 2005, dated 2014).

For the assay, the target named is wild type α-HL single channel (Staphylococcus aureus, UniProt P09616). In kind it is binding.
wild type α-HL single channel, sequence (P09616 27-319 limits assumed): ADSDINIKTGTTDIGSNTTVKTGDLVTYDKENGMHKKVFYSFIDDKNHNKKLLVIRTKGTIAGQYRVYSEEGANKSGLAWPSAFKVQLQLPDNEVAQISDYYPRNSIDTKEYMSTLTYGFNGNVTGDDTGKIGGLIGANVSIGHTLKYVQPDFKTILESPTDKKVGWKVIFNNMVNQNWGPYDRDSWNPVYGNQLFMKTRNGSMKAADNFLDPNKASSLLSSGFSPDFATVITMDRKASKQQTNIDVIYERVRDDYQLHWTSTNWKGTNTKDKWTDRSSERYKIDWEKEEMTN

Consider “heptakis-6-amino-β-cyclodextrin [am7-βCD]”, for which the “Cyclodextrin binding to wild type pore” value was “led to cyclodextrin binding events”.
